Reference: patent publication US7375058B2, “Herbicidal mixtures based on 3-phenyluracils” (priority 2002, dated 2008)

Columns and labels:
AMARE = assay: Greenhouse post-emergence herbicidal action against AMARE; format: in vivo, Amaranthus retroflexus
Description: (§1) For the post-emergence treatment, the test plants were first grown to a height of 3 to 20 cm, depending on the plant habit, and only then treated. Here, the herbicidal compositions were suspended or emulsified in water as distribution medium and sprayed using finely distributing nozzles
(§2) The respective components A and B and/or C were formulated as 10% by weight strength emulsion concentrate and introduced to the spray liquor with the amount of solvent system used for applying the active compound. In the examples, the solvent used was water.
(§3) The test period extended over 21 days. During this time, the plants were tended, and their response to the treatments with active compound was evaluated.
(§4) The evaluation for the damage caused by the chemical compositions was carried out using a scale from 0 to 100%, compared to the untreated control plants. Here, 0 means no damage and 100 means complete destruction of the plants.
(§5) In the examples below, the value E which is to be expected if the activity of the individual compounds is just additive was calculated using the method of S. R. Colby (1967) “Calculating synergistic and antagonistic responses of herbicide combinations”, Weeds 15, p. 22 ff. E=X+Y−([…]) where • X=effect in percent using active compound A at an application rate a; • Y=effect in percent using active compound B at an application rate b; • E=expected effect (in %) of A+B at application rates a+b.
(§6) If the observed effect is higher than the value E calculated according to Colby, a synergistic effect is present.

ABUTH = assay: Greenhouse post-emergence herbicidal action against ABUTH; format: in vivo, Abutilon theophrasti; conditions: 21 days
Description: as §1, §2, §3, §4, §5, §6

BIDPI = assay: Greenhouse post-emergence herbicidal action against BIDPI; format: in vivo, Bidens pilosa
Description: as §1, §2, §3, §4, §5, §6

AVEFA = assay: Greenhouse post-emergence herbicidal action against AVEFA; format: in vivo, Avena fatua
Description: as §1, §2, §3, §4, §5, §6

POLPE = assay: Greenhouse post-emergence herbicidal action against POLPE; format: in vivo, Polygonum persicaria; conditions: 21 days
Description: as §1, §2, §3, §4, §5, §6

GALAP = assay: Greenhouse post-emergence herbicidal action against GALAP; format: in vivo, Galium aparine; conditions: 21 days
Description: as §1, §2, §3, §4, §5, §6

TRZAW = assay: Pre-emergence safener action (crop damage) in TRZAW; format: in vivo, Triticum aestivum (Winter wheat); conditions: 21 days
Experimental: as §4
(§7) In the examples below, the mixtures were applied by the pre-emergence method. To this end, the test plants were initially sown and covered with a thin layer of soil. Afterward (i.e. prior to the germination of the test plants), the mixtures according to the invention were sprayed onto the soil as an aqueous spray liquor at the stated application rate. As in the post-emergence method described above, the test period was 21 days. The damage was then evaluated as described above using a scale from 0 to 100% damage in comparison to untreated control plants (0% damage).
(§8) A safener action is present if the damage to the crop plant caused by using a mixture according to the invention which contains a safener C) is less than the damage caused when active compound A or active compounds A and B are used without safener.

POAPR = assay: Pre-emergence herbicidal action against POAPR; format: in vivo, Poa pratensis; conditions: 21 days
Experimental: as §4, §7, §8

TRFPR = assay: Pre-emergence herbicidal action against TRFPR; format: in vivo, Trifolium pratense; conditions: 21 days
Experimental: as §4, §7, §8

ECHCG = assay: Greenhouse post-emergence herbicidal action against ECHCG; format: in vivo, Echinochloa crus-galli; conditions: 21 days
Description: as §1, §2, §3, §4, §5, §6

ALOMY = assay: Greenhouse post-emergence herbicidal action against ALOMY; format: in vivo, Alopecurus myosuroides; conditions: 21 days
Description: as §1, §2, §3, §4, §5, §6

BRAPL = assay: Greenhouse post-emergence herbicidal action against BRAPL; format: in vivo, Brachiaria plantaginea; conditions: 21 days
Description: as §1, §2, §3, §4, §5, §6

COMBE = assay: Greenhouse post-emergence herbicidal action against COMBE; format: in vivo, Commelina benghalensis; conditions: 21 days
Description: as §1, §2, §3, §4, §5, §6

[1] = I.1 0.49 g/ha and/or b14.1 7.81 g/ha
[2] = I.1 0.98 g/ha and/or b14.1 15.63 g/ha
[3] = I.1 1.95 g/ha and/or b10.1 125 g/ha
[4] = I.1 3.91 g/ha and/or b10.1 250 g/ha
[5] = I.8 200 g/ha and/or c.1 200 g/ha
[6] = I.8 400 g/ha and/or c.1 400 g/ha
[7] = application rate g/ha: I.8 0.98, b5.1 7.81
[8] = application rate g/ha: I.8 1.95, b5.1 15.63
[9] = I.7 200 g/ha and/or c.1 200 g/ha
[10] = I.7 400 g/ha and/or c.1 400 g/ha
[11] = application rate g/ha: I.7 1.95, b13.1 500
[12] = application rate g/ha: I.7 3.91, b13.1 1000
[13] = application rate g/ha: I.7 1.95, b3.2 62.5
[14] = application rate g/ha: I.7 3.91, b3.2 125

What does the source list for `CN(C)S(=O)(=O)NC(=O)c1cc(-n2c(=O)cc(C(F)(F)F)n(C)c2=O)c(F)cc1Cl` [I.1]?
Herbicidal action against AMARE found (AMARE; [1]): 60%; Herbicidal action against AMARE found (AMARE; [2]): 60%; Herbicidal action against ABUTH found (ABUTH; application rate g/ha: I.1 1.95, b1.2 31.25): 20%; Herbicidal action against ABUTH found (ABUTH; application rate g/ha: I.1 3.91, b1.2 62.5): 30%; Herbicidal action against BIDPI found (BIDPI; [1]): 20%; Herbicidal action against BIDPI found (BIDPI; [2]): 30%; Herbicidal action against BIDPI found (BIDPI; [3]): 40%; Herbicidal action against BIDPI found (BIDPI; [4]): 50%; Herbicidal action against AVEFA found (AVEFA; 21 days, application rate g/ha: I.1 0.98, b9.1 125): 5%; Herbicidal action against AVEFA found (AVEFA; 21 days, application rate g/ha: I.1 1.95, b9.1 250): 10%; Herbicidal action against AVEFA found (AVEFA; [3]): 10%; Herbicidal action against AVEFA found (AVEFA; [4]): 10%; Herbicidal action against POLPE found (POLPE; application rate g/ha: I.1 0.49, b4.1 0.98): 10%; Herbicidal action against POLPE found (POLPE; application rate g/ha: I.1 0.98, b4.1 1.95): 25%; Herbicidal action against GALAP found (GALAP; application rate g/ha: I.1 1.95, b1.1 62.5): 20%; Herbicidal action against GALAP found (GALAP; application rate g/ha: I.1 1.95, b1.3 + c.1 62.5 + 67.5): 50%; Herbicidal action against GALAP found (GALAP; application rate g/ha: I.1 3.91, b1.1 125): 20%; Herbicidal action against GALAP found (GALAP; application rate g/ha: I.1 3.91, b1.3 + c.1 125 + 135.9): 60%

Which “Damage to crop plant TRZAW” value (TRZAW; [5]) does the source give for `CC(C)N(C)S(=O)(=O)NC(=O)c1cc(-n2c(=O)cc(C(F)(F)F)n(N)c2=O)c(F)cc1Cl` [I.8] here?
The value was 30%.

And the “Damage to crop plant TRZAW” value (TRZAW; [6])?
The value was 65%.

What about the “Herbicidal action against POAPR” value (POAPR; [5]) of the same compound?
Its value is 98%.

What about the “Herbicidal action against POAPR” value (POAPR; [6]) of the same compound?
The value was 100%.

What about the “Herbicidal action against BIDPI found” value (BIDPI; 21 days, application rate g/ha: I.8 0.49, b2.2 7.81) of the same compound?
The value was 10%.

What about the “Herbicidal action against BIDPI found” value (BIDPI; 21 days, application rate g/ha: I.8 0.98, b2.2 15.63) of the same compound?
Its value is 20%.

And the “Herbicidal action against POLPE found” value (POLPE; [7])?
Its value is 10%.

What about the “Herbicidal action against POLPE found” value (POLPE; [8]) of the same compound?
Its value is 20%.

What about the “Herbicidal action against TRFPR” value (TRFPR; [5]) of the same compound?
Its value is 100%.

And the “Herbicidal action against TRFPR” value (TRFPR; [6])?
Its value is 100%.

What about the “Herbicidal action against ECHCG found” value (ECHCG; application rate g/ha: I.8 1.95, b5.2 31.25) of the same compound?
The value was 20%.

What about the “Herbicidal action against ECHCG found” value (ECHCG; application rate g/ha: I.8 3.91, b5.2 62.5) of the same compound?
The value was 40%.

What about the “Herbicidal action against ALOMY found” value (ALOMY; application rate g/ha: I.8 0.49, b2.1 7.81) of the same compound?
The value was 5%.

What about the “Herbicidal action against ALOMY found” value (ALOMY; application rate g/ha: I.8 0.98, b2.1 15.63) of the same compound?
Its value is 10%.

And the “Herbicidal action against BRAPL found” value (BRAPL; [7])?
The value was 30%.

What about the “Herbicidal action against BRAPL found” value (BRAPL; [8]) of the same compound?
Its value is 40%.

For `CC(C)N(C)S(=O)(=O)NC(=O)c1cc(-n2c(=O)cc(C(F)(F)F)n(C)c2=O)c(F)cc1Cl` [I.7], which “Damage to crop plant TRZAW” value (TRZAW; [9]) is on record?
The value was 10%.

And the “Damage to crop plant TRZAW” value (TRZAW; [10])?
The value was 35%.

And the “Herbicidal action against COMBE found” value (COMBE; [11])?
Its value is 0%.

And the “Herbicidal action against COMBE found” value (COMBE; [12])?
Its value is 0%.

And the “Herbicidal action against POAPR” value (POAPR; [9])?
Its value is 98%.

What about the “Herbicidal action against POAPR” value (POAPR; [10]) of the same compound?
Its value is 98%.

And the “Herbicidal action against ABUTH found” value (ABUTH; application rate g/ha: I.7 0.98, b3.3 31.25)?
The value was 0%.

What about the “Herbicidal action against ABUTH found” value (ABUTH; application rate g/ha: I.7 0.98, b3.4 31.25) of the same compound?
The value was 0%.

And the “Herbicidal action against ABUTH found” value (ABUTH; application rate g/ha: I.7 1.95, b3.3 62.5)?
The value was 30%.

What about the “Herbicidal action against ABUTH found” value (ABUTH; application rate g/ha: I.7 1.95, b3.4 62.5) of the same compound?
Its value is 30%.

And the “Herbicidal action against AVEFA found” value (AVEFA; 21 days, application rate g/ha: I.7 1.95, b3.1 62.5)?
Its value is 10%.

And the “Herbicidal action against AVEFA found” value (AVEFA; 21 days, application rate g/ha: I.7 1.95, b6.1 125)?
Its value is 10%.

And the “Herbicidal action against AVEFA found” value (AVEFA; 21 days, application rate g/ha: I.7 1.95, b7.1 250)?
Its value is 10%.

And the “Herbicidal action against AVEFA found” value (AVEFA; 21 days, application rate g/ha: I.7 3.91, b3.1 125)?
The value was 15%.

And the “Herbicidal action against AVEFA found” value (AVEFA; 21 days, application rate g/ha: I.7 3.91, b6.1 250)?
Its value is 15%.

And the “Herbicidal action against AVEFA found” value (AVEFA; 21 days, application rate g/ha: I.7 3.91, b7.1 500)?
The value was 15%.

And the “Herbicidal action against POLPE found” value (POLPE; application rate g/ha: I.7 1.95, b3.1 62.5)?
The value was 0%.

What about the “Herbicidal action against POLPE found” value (POLPE; application rate g/ha: I.7 1.95, b7.1 250) of the same compound?
The value was 0%.

What about the “Herbicidal action against POLPE found” value (POLPE; [11]) of the same compound?
Its value is 0%.

And the “Herbicidal action against POLPE found” value (POLPE; application rate g/ha: I.7 3.91, b3.1 125)?
Its value is 25%.

And the “Herbicidal action against POLPE found” value (POLPE; application rate g/ha: I.7 3.91, b7.1 500)?
The value was 25%.

What about the “Herbicidal action against POLPE found” value (POLPE; [12]) of the same compound?
The value was 25%.

What about the “Herbicidal action against TRFPR” value (TRFPR; [9]) of the same compound?
The value was 100%.

And the “Herbicidal action against TRFPR” value (TRFPR; [10])?
Its value is 100%.

And the “Herbicidal action against ECHCG found” value (ECHCG; [13])?
Its value is 0%.

And the “Herbicidal action against ECHCG found” value (ECHCG; [14])?
Its value is 30%.

What about the “Herbicidal action against BRAPL found” value (BRAPL; [13]) of the same compound?
Its value is 40%.

And the “Herbicidal action against BRAPL found” value (BRAPL; [14])?
Its value is 60%.
